Laboratory results from patent EP4450494A1, “INDOLE DERIVATIVES AS HISTONE DEACETYLASE (HDAC) INHIBITORS FOR THE TREATMENT OF CANCER” (Consejo Superior De Investigaciones Científicas, priority 2023, dated 2024).

Legend:
Assay type in all cases: cell-based
[1] = tested on: U87 glioblastoma cell line; test: MTT cell viability dose-response assay in U87; settings: MTT assay after 72 h of treatment
Procedure: (§1) As a first screening, dose-response assays were done in U87 glioblastoma cell line in order to obtain the IC50 values of the different compounds. Cells were seeded at a density of 1.500 cells/well in 96-well plates, incubated overnight and treated with increasing concentrations of the corresponding compounds. After 72 h of treatment, cell viability was determined by MTT assay. For this, MTT was added to the wells and cells were incubated for 3,5 h at 37 °C and 5% CO2. Then, media was removed and DMSO was added to resuspend the formed crystals. Absorbance at 570 nm was measured using a spectrophotometer, and GraphPad Prism software was used to analyze the results and calculate the IC50 values.

U251 = test: MTT cell viability assay in U251; settings: Homo sapiens, U-251, MTT assay after 72 h of treatment
Procedure: as §1
(§2) With this aim, additional MTT assays were carried out following the same protocol in other glioblastoma conventional (U251) and patient-derived (GNS179) cell lines. […]

GNS179 = test: MTT cell viability assay in GNS179; settings: GNS179 (patient-derived); MTT assay after 72 h of treatment
Procedure: as §1, §2

HDAC6 = biological target: T1, HDAC6 (Homo sapiens, UniProt Q9UBN7); test: Western blot of HDAC6 and acetylated α-tubulin in treated U87 cells; settings: 48 h, effect higher with increasing concentrations
T1 construct: endogenous in cells; host or cells: U87 glioblastoma cell line
T1 sequence (Q9UBN7 1-1215): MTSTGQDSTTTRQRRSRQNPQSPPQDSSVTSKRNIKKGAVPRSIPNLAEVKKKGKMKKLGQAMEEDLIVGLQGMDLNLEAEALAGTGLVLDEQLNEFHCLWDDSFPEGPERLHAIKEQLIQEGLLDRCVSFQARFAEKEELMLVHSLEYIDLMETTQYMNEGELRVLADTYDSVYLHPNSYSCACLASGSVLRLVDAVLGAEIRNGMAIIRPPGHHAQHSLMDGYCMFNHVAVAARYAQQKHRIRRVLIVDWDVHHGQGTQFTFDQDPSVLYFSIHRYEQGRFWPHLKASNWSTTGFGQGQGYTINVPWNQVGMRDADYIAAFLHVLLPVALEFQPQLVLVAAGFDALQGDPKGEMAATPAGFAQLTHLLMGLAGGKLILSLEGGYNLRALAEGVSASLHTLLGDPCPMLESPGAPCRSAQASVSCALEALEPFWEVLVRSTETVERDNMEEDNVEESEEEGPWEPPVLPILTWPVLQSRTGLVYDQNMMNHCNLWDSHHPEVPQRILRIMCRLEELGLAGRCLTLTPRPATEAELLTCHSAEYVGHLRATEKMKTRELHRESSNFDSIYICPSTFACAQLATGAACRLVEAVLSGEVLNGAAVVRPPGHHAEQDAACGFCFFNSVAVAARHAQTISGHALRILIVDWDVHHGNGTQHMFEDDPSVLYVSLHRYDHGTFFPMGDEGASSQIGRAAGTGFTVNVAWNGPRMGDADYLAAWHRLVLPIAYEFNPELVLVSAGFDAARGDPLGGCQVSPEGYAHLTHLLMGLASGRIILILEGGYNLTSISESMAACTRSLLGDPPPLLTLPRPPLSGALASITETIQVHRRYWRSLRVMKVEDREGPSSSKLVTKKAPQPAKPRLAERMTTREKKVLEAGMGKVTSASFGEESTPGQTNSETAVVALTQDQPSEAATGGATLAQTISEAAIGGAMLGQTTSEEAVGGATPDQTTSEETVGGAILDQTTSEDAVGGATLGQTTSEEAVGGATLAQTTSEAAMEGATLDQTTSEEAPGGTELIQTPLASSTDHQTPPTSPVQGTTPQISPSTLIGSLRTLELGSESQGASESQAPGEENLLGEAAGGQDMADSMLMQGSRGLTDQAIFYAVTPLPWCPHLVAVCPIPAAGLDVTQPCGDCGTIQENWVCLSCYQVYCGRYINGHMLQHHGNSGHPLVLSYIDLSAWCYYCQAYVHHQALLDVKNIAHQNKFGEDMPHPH
Procedure: Basing on the IC50 values, DDI199, MTP142, MTP156, MTP150, FRB44 and FRB56 were selected for further studies, as they seem to be the most promising compounds (see figure 1). Thus, the capacity of these compounds as HDAC inhibitors was tested. […] For this, specific antibodies against HDAC6 and HDAC1, and acetylated α-tubulin and acetylated histone H3 were used, and β-actin was included as control. Secondary antibodies were horseradish peroxidase (HRP)-linked anti-rabbit and anti-mouse and detection was performed by chemiluminiscence with NOVEX ECL Chemi Substrate.

[2] = tested on: conventional (U251) and patient-derived (GNS166 and GNS179) cell lines; test: Immunofluorescence for phosphohistone H3 (proliferation) in additional glioblastoma cell lines; settings: dose-dependent
Procedure: (§3) For this, U87 cells were incubated for 48 h with increasing concentrations of the compounds. After that, cells were incubated with phosphohistone H3 or caspase-3 antibodies for the study of proliferation or apoptosis, respectively. Alexa Fluor 555 IgG anti-mouse and anti-rabbit secondary antibodies were used, and nuclear DNA was stained with DAPI. Pictures were taken with an Eclipse 80i microscope.
(§4) Furthermore, immunofluorescence assays for DDI199 were completed in additional conventional (U251) and patient-derived (GNS166 and GNS179) cell lines.

[3] = tested on: conventional (U251) and patient-derived (GNS166 and GNS179) cell lines; test: Immunofluorescence for caspase-3 (apoptosis) in additional glioblastoma cell lines; settings: dose-dependent
Procedure: as §3, §4

Structure (SMILES) | IC50 [1] | IC50 (U251) | IC50 (GNS179) | HDAC6 inhibitory capacity (HDAC6) | cell proliferation (PH3 positive cells) [2] | apoptosis (caspase-3 positive cells) [3]
C#CCN(Cc1cc2cc(OCCCN3CCCCC3)ccc2n1S(=O)(=O)c1ccccc1)C(=O)CCCCCCC(=O)NO [DDI199, N1-Hydroxy-N8-((1-(phenylsulfonyl)-5-(3-(piperidin-1-yl)propoxy)-1H-indol-2-yl)methyl)-N8-(prop-2-yn-1-yl)octanediamide] | 3.23 µM | 5.45 µM | 4.33 µM | high HDAC6 inhibitory capacity | significantly reduces cell proliferation | induces apoptosis
COc1ccc2c(ccn2S(=O)(=O)c2cccc(/C=C/C(=O)NO)c2)c1 [MTP142, (E)-N-Hydroxy-3-(3-((5-methoxy-1H-indol-1-yl)sulfonyl)phenyl)acrylamide] | – | – | – | inhibits HDAC6, although this effect is much slighter than that for DDI199 | – | –
